{"source": "paper PMC9227781", "about": "“Inhibitors of O-Acetylserine Sulfhydrylase with a Cyclopropane-Carboxylic Acid Scaffold Are Effective Colistin Adjuvants in Gram Negative Bacteria” (Pharmaceuticals, 2022)", "key": {"S. Typhimurium DW378": {"system": "S. Typhimurium DW378", "assay": "Target engagement: MIC of 12h and colistin in cysK/cysM-inactive mutant strain", "type": "cell-based, Salmonella enterica serovar Typhimurium", "description": "In this regard, compound 12h has been selected because of its favorable overall properties. It has been tested at a concentration of 32 μg/mL, in order to ensure complete inactivation of both the OASS isoforms. […] The MIC assays of 12h and colistin alone on the DW378 strain have been performed and they have been compared with those obtained on the WT strain. […] But, on the other hand, the MIC value of colistin was […] lower on the mutant strain than that on the WT, a result that overlapped those achieved with the association of colistin and 12h in WT cells.\nMIC values were evaluated following CLSI guidelines with some modifications, as referred to in previous work. Twofold dilutions 25.6–0.05 mg/mL of the tested compounds were performed in DMSO in separate 96-well microtiter U-plates (Greiner, Milan, Italy). In a different 96-well microtiter U-plate, for each well of the replicates, 49 µL of broth medium were added. Then, in each well of the plate, one microliter of each compound at variable dilution in DMSO was added. For each test, three independent experiments with three replicates each were performed.\n(§1) Antimicrobial activity of associations between the different compounds and colistin (Sigma-Aldrich, St. Louis, MO, USA, lot n. 049M-4836 V) was tested with checkerboard assay with minor modifications, as mentioned in the previous work. For each assay, three experiments with three replicates each were assessed. For each compound tested concentration, 96-wells microtiter U-plates were prepared with twofold serial dilutions of colistin in MHB starting from the MIC value (µg/mL) for ten consecutive dilutions in 50 µL of broth. In each well of the same replicate, 1 µL of each compound in DMSO was added at a fixed concentration, 100 times higher than the final desired concentration (3.2; 1.6; 0.8 mg/mL). Subsequently, 49 µL of the bacterial suspension at a concentration of 10^6 CFU/mL, adjusted spectrophotometrically as reported above, was added to each well, reaching the final bacterial concentration of 5 × 10^5 CFU/mL. Growth and sterility controls were performed for each experiment and for each replicate. Finally, the plates were incubated at 37 °C in aerobic atmosphere for 24 h. After incubation, plates were read by unaided eye with a microtiter reading mirror and then the OD of each well of the plates was measured spectrophotometrically at 620 nm. MIC values were calculated as the arithmetic mean ± SD of the unaided eye reading and the inhibition of growth for each tested dilution was calculated from the OD values (mean ± SD).\n* This strain is defective for the expression of cysK and cysM genes, encoding for isozymes OASS-A and B. The genotypes of this strain are trpC109, cysK1772, and cysM1770. […]"}, "E. coli ATCC 25922": {"system": "E. coli ATCC 25922", "assay": "Checkerboard assay with colistin, E. coli", "type": "cell-based, Escherichia coli", "conditions": "for MIC Colistin E. coli: colistin in combination with compound at 8 μg/mL; for FIC Index E. coli / FIC Index interpretation E. coli: compound at 8 μg/mL with colistin; for fold reduction of MIC of colistin, E. coli: compound at 8 µg/mL, versus colistin alone", "description": "as §1\nTo evaluate the antimicrobial effect of the two molecules in association, the FIC index was calculated as follows. The MICs of each of the two molecules tested individually and in combination with each other were evaluated and the results have been included in the following formula as reported by Meletiadis et al.: FIC=MICA in combination/MICA+MICB in combination/MICB where MICA was the MIC of the compound UPAR415 and MICA in combination was the MIC of UPAR415 in combination with colistin. MICB was the MIC of colistin and MICB in combination was the MIC of colistin in combination with UPAR415. From the results of the FIC index formula, the antimicrobial activity in combination of the two molecules can be considered: synergistic, additive, indifferent of antagonistic. If the FIC index is ≤ 0.5, the association is synergic; additive if FIC is between 0.5 and 1; indifferent if FIC is between 1 and 4; and antagonistic if FIC is ≥4 [50].\nStatistical analysis of checkerboard results in comparison with MIC values of colistin alone was performed using the Analysis of Variance (ANOVA) test."}}, "data": [{"smiles": "CCOC(=O)C1(Cc2ccc(C)cc2)CC1c1cccc(N2CC(C)OC(C)C2)c1", "note": "(stereo not drawn) [Compound 12h, trans-ethyl 2-(3-(2,6-dimethylmorpholino)phenyl)-1-(4-methylbenzyl)cyclopropanecarboxylate]", "values": [{"measurement": "MIC", "setting": "S. Typhimurium DW378; Salmonella enterica, TYPHIMURIUM, 12 h, read-out: MIC 12h (μg/mL)", "value": "> 512", "unit": "µg/mL"}, {"measurement": "MIC Colistin", "setting": "S. Typhimurium DW378; colistin in combination with 12h at 32 μg/mL, DW378 mutant strain", "value": "0.141 ± 0.09", "unit": "µg/mL"}, {"measurement": "MIC Colistin E. coli", "setting": "E. coli ATCC 25922", "value": "0.122 ± 0.08", "unit": "µg/mL"}, {"measurement": "FIC Index E. coli", "setting": "E. coli ATCC 25922", "value": 0.33}, {"measurement": "FIC Index interpretation E. coli", "setting": "E. coli ATCC 25922", "value": "synergy (If the FIC index is ≤ 0.5, the association is synergic)"}, {"measurement": "fold reduction of MIC of colistin, E. coli", "setting": "E. coli ATCC 25922", "value": 2, "unit": "fold"}]}, {"smiles": "Cc1ccc(CC2(C(=O)O)CC2c2cccc(N3CC(C)OC(C)C3)c2)cc1", "note": "(stereo not drawn) [Compound 13h, trans-2-(3-(2,6-dimethylmorpholino)phenyl)-1-(4-methylbenzyl)cyclopropanecarboxylic acid]", "values": [{"measurement": "MIC Colistin E. coli", "setting": "E. coli ATCC 25922", "value": "0.18 ± 0.06", "unit": "µg/mL"}, {"measurement": "FIC Index E. coli", "setting": "E. coli ATCC 25922", "value": 0.48}, {"measurement": "FIC Index interpretation E. coli", "setting": "E. coli ATCC 25922", "value": "synergy (If the FIC index is ≤ 0.5, the association is synergic)"}, {"measurement": "fold reduction of MIC of colistin, E. coli", "setting": "E. coli ATCC 25922", "value": 3, "unit": "fold"}]}]}
